Assay results taken from the supplement of paper PMC10307832.

Columns and labels:
Assay in all cases: relative viability (nuclei count vs DMSO), 5 days (fraction); higher = more cells survive
HCC-15 = tested on: HCC-15
How it was run: (§1)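 Values are medians from duplicate plates. Each reflects relative viability, defined as the nuclei count of treated wells over that of vehicle wells. Lung cancer cell lines in 1536-well plates were pin-tool dosed one day after seeding with one drug alone or with a fixed anchor-drug dose plus five library-drug doses (not always all listed) in √10 steps, then fixed, stained and imaged at 4× after 5 days.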

HARA = tested on: HARA
How it was run: as §1

NCI-H1755 = tested on: NCI-H1755
How it was run: as §1

COR-L23 = tested on: COR-L23
How it was run: as §1

NCI-H1793 = tested on: NCI-H1793
How it was run: as §1

NCI-H2009 = tested on: NCI-H2009
How it was run: as §1

NCI-H1993 = tested on: NCI-H1993
How it was run: as §1

NCI-H2347 = tested on: NCI-H2347
How it was run: as §1

NCI-H1734 = tested on: NCI-H1734
How it was run: as §1

NCI-H522 = tested on: NCI-H522
How it was run: as §1

NCI-H358 = tested on: NCI-H358
How it was run: as §1

NCI-H2228 = tested on: NCI-H2228
How it was run: as §1

HOP-62 = tested on: HOP-62
How it was run: as §1

NCI-H1792 = tested on: NCI-H1792
How it was run: as §1

NCI-H838 = tested on: NCI-H838
How it was run: as §1

SK-MES-1 = tested on: SK-MES-1
How it was run: as §1

UMC-11 = tested on: UMC-11
How it was run: as §1

NCI-H1395 = tested on: NCI-H1395
How it was run: as §1

NCI-H1355 = tested on: NCI-H1355
How it was run: as §1

NCI-H2170 = tested on: NCI-H2170
How it was run: as §1

NCI-H647 = tested on: NCI-H647
How it was run: as §1

COR-L 105 = tested on: COR-L 105
How it was run: as §1

SMILES: COc1nc(C)cnc1NS(=O)(=O)c1cccnc1-c1ccc(-c2nnco2)cc1 [Zibotentan] + CC(=O)c1c(C)c2cnc(Nc3ccc(N4CCNCC4)cn3)nc2n(C2CCCC2)c1=O [Palbociclib] (partner 0.5 µM)
- relative viability (HCC-15; first compound 0.08 µM): 0.796
- relative viability (HCC-15; first compound 0.253 µM): 0.641
- relative viability (HCC-15; first compound 0.8 µM): 0.796
- relative viability (HCC-15; first compound 2.53 µM): 0.713
- relative viability (HARA; first compound 0.08 µM): 0.297
- relative viability (HARA; first compound 0.253 µM): 0.226
- relative viability (HARA; first compound 0.8 µM): 0.27
- relative viability (HARA; first compound 2.53 µM): 0.258
- relative viability (NCI-H1755; first compound 0.08 µM): 0.421
- relative viability (NCI-H1755; first compound 0.253 µM): 0.497
- relative viability (NCI-H1755; first compound 0.8 µM): 0.447
- relative viability (NCI-H1755; first compound 2.53 µM): 0.453
- relative viability (COR-L23; first compound 0.08 µM): 0.338
- relative viability (COR-L23; first compound 0.253 µM): 0.225
- relative viability (COR-L23; first compound 0.8 µM): 0.366
- relative viability (COR-L23; first compound 2.53 µM): 0.322
- relative viability (NCI-H1793; first compound 0.08 µM): 0.362
- relative viability (NCI-H1793; first compound 0.253 µM): 0.378
- relative viability (NCI-H1793; first compound 0.8 µM): 0.287
- relative viability (NCI-H1793; first compound 2.53 µM): 0.296
- relative viability (NCI-H2009; first compound 0.08 µM): 0.188
- relative viability (NCI-H2009; first compound 0.253 µM): 0.169
- relative viability (NCI-H2009; first compound 0.8 µM): 0.205
- relative viability (NCI-H2009; first compound 2.53 µM): 0.212
- relative viability (NCI-H1993; first compound 0.08 µM): 0.661
- relative viability (NCI-H1993; first compound 0.253 µM): 0.712
- relative viability (NCI-H1993; first compound 0.8 µM): 0.537
- relative viability (NCI-H1993; first compound 2.53 µM): 0.662
- relative viability (NCI-H2347; first compound 0.08 µM): 0.407
- relative viability (NCI-H2347; first compound 0.253 µM): 0.445
- relative viability (NCI-H2347; first compound 0.8 µM): 0.439
- relative viability (NCI-H2347; first compound 2.53 µM): 0.454
- relative viability (NCI-H1734; first compound 0.08 µM): 0.337
- relative viability (NCI-H1734; first compound 0.253 µM): 0.32
- relative viability (NCI-H1734; first compound 0.8 µM): 0.374
- relative viability (NCI-H1734; first compound 2.53 µM): 0.407
- relative viability (NCI-H522; first compound 0.08 µM): 0.981
- relative viability (NCI-H522; first compound 0.253 µM): 0.823
- relative viability (NCI-H522; first compound 0.8 µM): 0.919
- relative viability (NCI-H522; first compound 2.53 µM): 0.855
- relative viability (NCI-H358; first compound 0.08 µM): 0.152
- relative viability (NCI-H358; first compound 0.253 µM): 0.117
- relative viability (NCI-H358; first compound 2.53 µM): 0.125
- relative viability (NCI-H2228; first compound 0.08 µM): 0.762
- relative viability (NCI-H2228; first compound 0.253 µM): 0.654
- relative viability (NCI-H2228; first compound 0.8 µM): 0.821
- relative viability (NCI-H2228; first compound 2.53 µM): 0.897
- relative viability (HOP-62; first compound 0.08 µM): 0.47
- relative viability (HOP-62; first compound 0.253 µM): 0.431
- relative viability (HOP-62; first compound 0.8 µM): 0.518
- relative viability (HOP-62; first compound 2.53 µM): 0.451
- relative viability (NCI-H1792; first compound 0.08 µM): 0.77
- relative viability (NCI-H1792; first compound 0.253 µM): 0.551
- relative viability (NCI-H1792; first compound 0.8 µM): 0.525
- relative viability (NCI-H1792; first compound 2.53 µM): 0.578
- relative viability (NCI-H838; first compound 0.08 µM): 0.227
- relative viability (NCI-H838; first compound 0.253 µM): 0.207
- relative viability (NCI-H838; first compound 0.8 µM): 0.191
- relative viability (NCI-H838; first compound 2.53 µM): 0.233
- relative viability (SK-MES-1; first compound 0.08 µM): 0.309
- relative viability (SK-MES-1; first compound 0.253 µM): 0.284
- relative viability (SK-MES-1; first compound 0.8 µM): 0.35
- relative viability (SK-MES-1; first compound 2.53 µM): 0.362
- relative viability (UMC-11; first compound 0.08 µM): 0.35
- relative viability (UMC-11; first compound 0.253 µM): 0.323
- relative viability (UMC-11; first compound 0.8 µM): 0.363
- relative viability (UMC-11; first compound 2.53 µM): 0.323
- relative viability (NCI-H1395; first compound 0.08 µM): 0.653
- relative viability (NCI-H1395; first compound 0.253 µM): 0.618
- relative viability (NCI-H1395; first compound 0.8 µM): 0.614
- relative viability (NCI-H1395; first compound 2.53 µM): 0.654
- relative viability (NCI-H1355; first compound 0.08 µM): 0.407
- relative viability (NCI-H1355; first compound 0.253 µM): 0.418
- relative viability (NCI-H1355; first compound 0.8 µM): 0.388
- relative viability (NCI-H1355; first compound 2.53 µM): 0.435
- relative viability (NCI-H2170; first compound 0.08 µM): 0.389
- relative viability (NCI-H2170; first compound 0.253 µM): 0.369
- relative viability (NCI-H2170; first compound 0.8 µM): 0.403
- relative viability (NCI-H2170; first compound 2.53 µM): 0.371
- relative viability (NCI-H647; first compound 0.08 µM): 0.471
- relative viability (NCI-H647; first compound 0.253 µM): 0.358
- relative viability (NCI-H647; first compound 0.8 µM): 0.361
- relative viability (NCI-H647; first compound 2.53 µM): 0.469
- relative viability (COR-L 105; first compound 0.08 µM): 0.381
- relative viability (COR-L 105; first compound 0.253 µM): 0.375
- relative viability (COR-L 105; first compound 0.8 µM): 0.373
- relative viability (COR-L 105; first compound 2.53 µM): 0.45
